Reference: patent US20190125822A1, “COMPOSITION FOR IMPROVING OR PREVENTING NONALCOHOLIC FATTY LIVER” (KOHJIN LIFE SCIENCES CO., LTD., priority 2015, published 2019)

What was measured:
[1] = test system: Mice (C57/B6J) fed with high-fat food; conditions: 20 weeks old
Description: Mice (C57/B6J, 8 weeks old male) were divided into 4 groups (5 animals each), and the first group (DB) was freely fed with ordinary food (CertifiedDiet “MF” manufactured by Oriental Yeast Co., ltd.). The second group (HFD) was freely fed with high-fat food (High Fat Diet 32, manufactured by CLEA Japan, Inc.), […].
When the mouse was 20 weeks old, the body weight, the liver weight, the serum aspartate aminotransferase (AST), the alanine aminotransferase (ALT), the serum triglyceride (TG), the free fatty acid value (FFA) and the total cholesterol value (T-cho) were measured.

[2] = test system: subjects who had NAFLD in 31 IU/L or more of ALT; conditions: 300 mg per day oral
[3] = HFD6 and HFD60 groups in comparison to HFD group
[4] = high-fat food, glutathione 6 and 60 mg/kg/day in water

SMILES: N[C@@H](CCC(=O)N[C@@H](CS)C(=O)NCC(=O)O)C(=O)O [glutathione]
- FFA (free fatty acid value) [1, 3]: significant decrease
- T-cho (total cholesterol value) [1, 3]: significant decrease
- liver weight [1, 4]: decreased dependently on the concentration
- ratio of liver weight/body weight [1, 4]: decrease of the body weight ratio was also recognized
- body weight ([1]; high-fat food, glutathione 6 or 60 mg/kg/day in water): decrease of the body weight was recognized
- TG (triglyceride value) ([1]; serum, HFD6 and HFD60 groups in comparison to HFD group): significant decrease
- FibroScan (after treatment) CAP ([2]; after treatment, individual subject per table row): 280 dBe
- improvement of ALT after administration in comparison to ALT before the administration (0 wk) ([2]; Case IDs 1 to 9 of 16 subjects, at any week after initiation): ≥ 20%
